Assay results: patent publication US11439707B2, “Hypocrellin derivative substituted both in a peri-position and in 2-position by amino, preparation method, and application thereof” (priority 2017, dated 2022)

Assays:
[1] = absorption spectrum (maximum absorption wavelength, molar extinction coefficient); format: physicochemical
[2] = singlet oxygen efficiency test, reference rose bengal; format: physicochemical

Compound	maximum absorption wavelength [1] [nm]	molar extinction coefficient [1]	singlet oxygen yield [2] [%]
COc1c2c3c4c(c(NCCCC(=O)O)c(=O)c5c(O)cc(OC)c(c6c(OC)cc(NCCCC(=O)O)c(c1=O)c63)c54)C=C(C)C2 [HC-8d]	623	27,000 M^−1cm^−1	26
COCCOCCOCCOCCOCCOCCOCCOCCOCCOCCOCCOCCOCCOCCOCCOCCOC(=O)C1CCC(CNc2c3c4c5c(c(OC)c(=O)c6c(NCC7CCC(C(=O)OCCOCCOCCOCCOCCOCCOCCOCCOCCOCCOCCOCCOCCOCCOCCOCCOC)CC7)cc(OC)c(c7c(OC)cc(O)c(c2=O)c74)c65)C(C(C)=O)C(C)=C3)CC1 (stereo not drawn) [HB-13d-PEG16]	624	30,500 M^−1cm^−1	33
CCNNc1c2c3c4c(c(OC)c(=O)c5c(O)cc(OC)c(c6c(OC)cc(NNCC)c(c1=O)c63)c54)C(C(C)=O)C(C)=C2 (stereo not drawn) [HB-36c]	621	33,500 M^−1cm^−1	35
COc1c(NCCO)c2c(=O)cc(OC)c3c4c(OC)cc(=O)c5c(O)c(NCCO)c6c(c(c1CC(C)=C6)c23)c54 [HC-2b]	624	27.500 M⁻¹ cm⁻¹	33
COCCOCCOCCOCCOCCOCCOCCC(=O)N1CCC(CNc2c(O)c3c(=O)cc(OC)c4c5c(OC)cc(=O)c6c(NCC7CCN(C(=O)CCOCCOCCOCCOCCOCCOCCOC)CC7)c(OC)c7c(c(c2C=C(C)C7C(C)=O)c34)c65)CC1 (stereo not drawn) [HB-31b-PEG6]	622	31,000 M^−1cm^−1	38
COC(=O)C(CO)Nc1c(O)c2c(=O)cc(OC)c3c4c(OC)cc(=O)c5c(NC(CO)C(=O)OC)c(OC)c6c(c(c1C=C(C)C6C(C)=O)c23)c54 (stereo not drawn) [HB-24b]	621	21,500 M^−1cm^−1	20
COc1c2c3c4c(c(NCC5CCC(C(=O)NCCCCCC[P+](c6ccccc6)(c6ccccc6)c6ccccc6)CC5)c(=O)c5c(NCC6CCC(C(=O)NCCCCCC[P+](c7ccccc7)(c7ccccc7)c7ccccc7)CC6)cc(OC)c(c6c(OC)cc(O)c(c1=O)c63)c54)C=C(C)C2 (stereo not drawn) [HC-13c-NH—C6-PPh3+]	632	33,500 M^−1cm^−1	38
COc1c2c3c4c(c(NCC5CCC(C(=O)NCCCC[P+](c6ccccc6)(c6ccccc6)c6ccccc6)CC5)c(=O)c5c(O)cc(OC)c(c6c(OC)cc(NCC7CCC(C(=O)NCCCC[P+](c8ccccc8)(c8ccccc8)c8ccccc8)CC7)c(c1=O)c63)c54)C=C(C)C2 (stereo not drawn) [HC-13d-NH—C4-PPh3+]	618	31,500 M^−1cm^−1	30
COCCOCCOCCOCCOCCOCCOC(=O)C1CCC(Nc2c3c4c5c(c(OC)c(=O)c6c(NC7CCC(C(=O)OCCOCCOCCOCCOCCOCCOC)C7)cc(OC)c(c7c(OC)cc(O)c(c2=O)c74)c65)C(C(C)=O)C(C)=C3)C1 (stereo not drawn) [HB-19d-PEG6]	636	31,000 M^−1cm^−1	32
CCNc1c2c3c4c(c(OC)c(=O)c5c(NC6CCCC6)cc(OC)c(c6c(OC)cc(O)c(c1=O)c63)c54)C(C(C)=O)C(C)=C2 (stereo not drawn) [HB-44d]	622	21,500 M^−1cm^−1	21
COCCOCCOCCOCCOCCOCCOCCC(=O)OCCOCCNc1c(O)c2c(=O)cc(OC)c3c4c(OC)cc(=O)c5c(NCCOCCOC(=O)CCOCCOCCOCCOCCOCCOCCOC)c(OC)c6c(c(c1C=C(C)C6C(C)=O)c23)c54 (stereo not drawn) [HB-1b-PEG6]	622	30,000 M^−1cm^−1	32
COCCOCCOCCOCCOCCOCCOCCN1CCC(CNc2c(O)c3c(=O)cc(OC)c4c5c(OC)cc(=O)c6c(NCC7CCN(CCOCCOCCOCCOCCOCCOCCOC)CC7)c(OC)c7c(c(c2C=C(C)C7C(C)=O)c34)c65)CC1 (stereo not drawn) [HB-32b-PEG6]	622	31,000 M^−1cm^−1	38
COc1c2c3c4c(c(NC5(CO)CC5)c(=O)c5c(NC6(CO)CC6)cc(OC)c(c6c(OC)cc(O)c(c1=O)c63)c54)C=C(C)C2C(C)=O (stereo not drawn) [HB-35c]	619	32,500 M^−1cm^−1	34
COCCOC(=O)C1CCC(Nc2c(NC3CCC(C(=O)OCCOC)C3)c3c(=O)cc(OC)c4c5c(OC)cc(=O)c6c(O)c(OC)c7c(c(c2C=C(C)C7C(C)=O)c34)c65)C1 (stereo not drawn) [HB-19a-PEG1]	624	30,500 M^−1cm^−1	32
COc1c(NCCO)c2c(=O)cc(OC)c3c4c(OC)cc(=O)c5c(O)c(NCCO)c6c(c(c1C(C(C)=O)C(C)=C6)c23)c54 (stereo not drawn) [HB-2b]	627	31.500 M⁻¹ cm⁻¹	25
COCCOCCOCCOCCOCCOCCOC(=O)CCCNc1c2c3c4c(c(OC)c(=O)c5c(NCCCC(=O)OCCOCCOCCOCCOCCOCCOC)cc(OC)c(c6c(OC)cc(O)c(c1=O)c63)c54)C(C(C)=O)C(C)=C2 (stereo not drawn) [HB-8d-PEG6]	620	31,500 M^−1cm^−1	32
COc1c2c3c4c(c(NO)c(=O)c5c(NO)cc(OC)c(c6c(OC)cc(O)c(c1=O)c63)c54)C=C(C)C2 [HC-37c]	624	34,000 M^−1cm^−1	36
COC(=O)C1CCC(CNc2c3c4c5c(c(OC)c(=O)c6c(O)cc(OC)c(c7c(OC)cc(NCC8CCC(C(=O)OC)CC8)c(c2=O)c74)c65)C(C(C)=O)C(C)=C3)CC1 (stereo not drawn) [HB-13c-AcE]	621	28,500 M^−1cm^−1	30
COc1c(O)c2c(=O)cc(OC)c3c4c(OC)cc(=O)c5c(NCS(=O)(=O)O)c(NCCCS(=O)(=O)O)c6c(c(c1CC(C)=C6)c23)c54 [HC-45a]	613	21,000 M^−1cm^−1	18
COc1c(NCCOC(=O)N2CC(=O)NC(=O)C2)c2c(=O)cc(OC)c3c4c(OC)cc(=O)c5c(O)c(NCCOC(=O)N6CC(=O)NC(=O)C6)c6c(c(c1C(C(C)=O)C(C)=C6)c23)c54 (stereo not drawn) [HB-40b]	624	31,500 M^−1cm^−1	34
CCNc1c2c3c4c(c(OC)c(=O)c5c(NC6CCCC6)cc(OC)c(c6c(OC)c(SCCO)c(O)c(c1=O)c36)c54)C(C(C)=O)C(C)=C2 (stereo not drawn) [HB-S-44d]	622	21,500 M^−1cm^−1	21
COc1c2c3c4c(c(NCCNCCOCCO)c(=O)c5c(O)cc(OC)c(c6c(OC)cc(NCCNCCOCCO)c(c1=O)c63)c54)C=C(C)C2C(C)=O (stereo not drawn) [HB-5d-PEG1]	625	30,500 M^−1cm^−1	32
COCCOCCOCCOCCOCCOCCOCCOCCOCCOCCOCCOCCOC(=O)C1CCC(Nc2c3c4c5c(c(OC)c(=O)c6c(O)cc(OC)c(c7c(OC)cc(NC8CCC(C(=O)OCCOCCOCCOCCOCCOCCOCCOCCOCCOCCOCCOCCOC)CC8)c(c2=O)c74)c65)C(C(C)=O)C(C)=C3)CC1 (stereo not drawn) [HB-14c-PEG12]	628	33,500 M^−1cm^−1	38
